Test results: ChEMBL document CHEMBL1201862, “PubChem BioAssay data set” (2004)
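Grown in 96-well plates, cells were treated for 48 hours with each compound at five concentrations. Insufficient inhibition: endpoint recorded as highest concentration tested. GI50 marks 50% less growth.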 The source made the active and inactive calls. No stated cut-off is given here; in the data, active = GI50 up to about 1.1 µM and inactive = higher.

Assays:
Experiment in all cases: DTP human tumour cell line panel, 48 h
[1] = tested on: OVCAR-3
[2] = tested on: SK-MEL-2
[3] = tested on: K562
[4] = tested on: MDA-N
[5] = tested on: HCT-116
[6] = tested on: ACHN
[7] = tested on: DU-145
[8] = tested on: OVCAR-5
[9] = tested on: MDA-MB-435
[10] = tested on: SNB-19
[11] = tested on: SF-539
[12] = tested on: HCT-15
[13] = tested on: PC-3
[14] = tested on: OVCAR-8
[15] = tested on: RXF 393
[16] = tested on: RPMI-8226
[17] = tested on: Malme-3M
[18] = tested on: TK-10
[19] = tested on: IGROV-1
[20] = tested on: HOP-92

Compound | GI50 [1] | GI50 [2] | GI50 [3] | GI50 [4] | GI50 [5] | GI50 [6] | GI50 [7] | GI50 [8] | GI50 [9] | GI50 [10] | GI50 [11] | GI50 [12] [µM] | GI50 [13] | GI50 [14] | GI50 [15] | GI50 [16] | GI50 [17] | GI50 [18] | GI50 [19] | GI50 [20]
CC(C)(C)OC/C=C(\Br)CO | > 100 µM (inactive) | > 100 µM (inactive) | > 100 µM (inactive) | > 100 µM (inactive) | > 100 µM (inactive) | > 100 µM (inactive) | > 100 µM (inactive) | > 100 µM (inactive) | > 100 µM (inactive) | > 100 µM (inactive) | > 100 µM (inactive) | > 100 | > 100 µM (inactive) | > 100 µM (inactive) | > 100 µM (inactive) | > 100 µM (inactive) | > 100 µM (inactive) |  |  | 
CC1(C)[C@@H]2C[C@H]1c1cnc(-c3ccccn3)cc1C2CCCCC[C@@H]1c2cc(-c3ccccn3)ncc2[C@@H]2C[C@H]1C2(C)C (stereo partly specified) | 0.404 µM (active) | 7.1 µM (inactive) | 0.473 µM (active) | 1.36 µM (inactive) | 0.489 µM (active) | 1.82 µM (inactive) | 1.41 µM (inactive) | > 20.3 µM (inactive) | 1.38 µM (inactive) | 1.78 µM (inactive) | 0.199 µM (active) | 5.9 | 1.32 µM (inactive) | 1.88 µM (inactive) | 0.745 µM (active) | 2.51 µM (inactive) | 3.19 µM (inactive) | > 49.2 µM (inactive) | 1.63 µM (inactive) | 
CC(C)c1ccc2c(c1)/C(=C1/Nc3ccccc3/C1=N/O)C(=O)N2 | 7.46 µM (inactive) | 3.9 µM (inactive) | 4.07 µM (inactive) | 6.73 µM (inactive) | 3.76 µM (inactive) | 3.33 µM (inactive) | 6.07 µM (inactive) | 16.1 µM (inactive) | 7.38 µM (inactive) | 16.4 µM (inactive) |  | 3.98 | 6.64 µM (inactive) | 2.79 µM (inactive) | 2.07 µM (inactive) | 4.17 µM (inactive) | 3.72 µM (inactive) | 9.4 µM (inactive) | 8.73 µM (inactive) | 
CC(C)[C@@H]1NC(=O)[C@H]2N=C(O[C@@H]2C)[C@@H]2CCCN2C(=O)[C@H](Cc2ccccc2)NC(=O)[C@@H]2CSC(=N2)[C@@H](Cc2ccccc2)NC(=O)[C@@H]2CSC1=N2 | 47 µM (inactive) | > 50 µM (inactive) | 9.38 µM (inactive) | > 50 µM (inactive) | > 50 µM (inactive) | > 50 µM (inactive) | > 50 µM (inactive) | > 50 µM (inactive) | 36.4 µM (inactive) | > 50 µM (inactive) | 17.5 µM (inactive) | 33.2 | 21.8 µM (inactive) | > 50 µM (inactive) | 39 µM (inactive) | 9.29 µM (inactive) | > 50 µM (inactive) | > 50 µM (inactive) | > 50 µM (inactive) | 
O=C1CS(=O)(=O)C(c2cccc(Oc3ccccc3)c2)N1c1cc(Cl)ccc1Cl (stereo unspecified) | 19 µM (inactive) | 14.4 µM (inactive) | 27.4 µM (inactive) | 16.7 µM (inactive) | 20.2 µM (inactive) | 19.7 µM (inactive) | 17.9 µM (inactive) | 29.6 µM (inactive) | 12.1 µM (inactive) | 22.4 µM (inactive) | 21 µM (inactive) | 24.9 | 14.7 µM (inactive) | 19.8 µM (inactive) |  |  | 47 µM (inactive) | 30.1 µM (inactive) |  | 18.2 µM (inactive)
NC(=O)N/N=C1/c2ccccc2-n2nccc21 | 40.7 µM (inactive) | > 100 µM (inactive) | 75.7 µM (inactive) | 43.1 µM (inactive) | 30.8 µM (inactive) | 43.5 µM (inactive) | > 100 µM (inactive) | > 100 µM (inactive) | 57.4 µM (inactive) | > 100 µM (inactive) | 48.5 µM (inactive) | 55.7 | > 100 µM (inactive) | > 100 µM (inactive) | 25.9 µM (inactive) |  | > 100 µM (inactive) | > 100 µM (inactive) | 39.9 µM (inactive) | 64.7 µM (inactive)
COc1ccc(CC2Cc3ccccc3CC(=O)N2)cc1OC (stereo unspecified) | 97.3 µM (inactive) | > 100 µM (inactive) | 44.9 µM (inactive) | 52.5 µM (inactive) | 98.9 µM (inactive) | > 100 µM (inactive) | > 100 µM (inactive) | > 100 µM (inactive) | 55.8 µM (inactive) | > 100 µM (inactive) | > 100 µM (inactive) | > 100 | 40.3 µM (inactive) | 75 µM (inactive) |  |  | > 100 µM (inactive) | > 100 µM (inactive) | > 100 µM (inactive) | 89.5 µM (inactive)
CC1(C)O[C@@H]2COC(=O)[C@@H]2O1 | > 100 µM (inactive) | > 100 µM (inactive) | > 100 µM (inactive) | > 100 µM (inactive) | > 100 µM (inactive) | > 100 µM (inactive) | > 100 µM (inactive) | > 100 µM (inactive) | > 100 µM (inactive) | > 100 µM (inactive) | 2.95 µM (inactive) | > 100 | > 100 µM (inactive) | > 100 µM (inactive) | > 100 µM (inactive) |  | > 100 µM (inactive) | > 100 µM (inactive) | > 100 µM (inactive) | > 100 µM (inactive)
